Measurements: PubChem BioAssay (NCI)
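Compound exposure: 48 hours, 5 concentrations, 96-well plates. Abbreviation: GI50, concentration required for 50% inhibition of growth. TGI is the concentration that stops growth completely.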

Legend:
Experiment in all cases: growth of human tumour cells (NCI), 48 h
[1] = test system: OVCAR-4 ovarian
[2] = test system: COLO 205 colon
[3] = test system: SK-OV-3 ovarian
[4] = test system: UO-31 renal
[5] = test system: SF-539 CNS
[6] = test system: SR leukemia
[7] = test system: NCI-H460 lung
[8] = test system: MDA-MB-435
[9] = test system: NCI-H23 lung
[10] = test system: NCI-H226 lung
[11] = test system: SN12C renal
[12] = test system: SNB-75 CNS
[13] = test system: 786-0 renal
[14] = test system: CCRF-CEM leukemia
[15] = test system: MCF7 breast
[16] = test system: ACHN renal
[17] = test system: SF-268 CNS
[18] = test system: HCT-15 colon
[19] = test system: HL-60(TB) leukemia
[20] = test system: NCI/ADR-RES ovarian
[21] = test system: A549 NSCLC
[22] = test system: RXF 393 renal
[23] = test system: HOP-62 NSCLC
[24] = test system: BT-549 breast
[25] = test system: UACC-257 melanoma
[26] = test system: DU-145 prostate
[27] = test system: NCI-H522 lung
[28] = test system: K-562 leukemia
[29] = test system: M14 melanoma
[30] = test system: MDA-MB-231 breast
[31] = test system: OVCAR-5 ovarian
[32] = test system: MALME-3M melanoma
[33] = test system: HT29 colon
[34] = test system: UACC-62 melanoma
[35] = test system: HCC-2998 colon
[36] = test system: A498 renal
[37] = test system: SW-620 colon
[38] = test system: CAKI-1 renal
[39] = test system: HS 578T breast
[40] = test system: SK-MEL-5 melanoma
[41] = test system: OVCAR-3 ovarian
[42] = test system: IGROV1 ovarian
[43] = test system: SF-295 CNS
[44] = test system: SK-MEL-28 melanoma
[45] = test system: OVCAR-8 ovarian
[46] = test system: PC-3 prostate
[47] = test system: KM12 colon
[48] = test system: T-47D breast
[49] = test system: TK-10 renal
[50] = test system: HCT-116 colon
[51] = test system: RPMI-8226 leukemia
[52] = test system: MOLT-4 leukemia
[53] = test system: SNB-19 CNS

## O=C(Cc1ccc(OCc2ccccc2)cc1)NCc1ccc2c(c1)OCO2
[1]
  GI50: > 100 µM
  TGI: > 100 µM
[2]
  GI50: 14.4 µM
  TGI: > 100 µM
[3]
  GI50: 8.18 µM
  TGI: > 100 µM
[4]
  GI50: > 100 µM
  TGI: > 100 µM
[5]
  GI50: 9.11 µM
  TGI: > 100 µM
[6]
  GI50: 5.23 µM
  TGI: > 100 µM
[7]
  GI50: > 100 µM
  TGI: > 100 µM
[8]
  GI50: 2.32 µM
  TGI: 5.93 µM
[9]
  GI50: > 100 µM
  TGI: > 100 µM
[10]
  GI50: > 100 µM
  TGI: > 100 µM
[11]
  GI50: > 100 µM
  TGI: > 100 µM
[12]
  GI50: 2.17 µM
  TGI: 6.53 µM
[13]
  GI50: 30.3 µM
  TGI: > 100 µM
[14]
  GI50: > 100 µM
  TGI: > 100 µM
[15]
  GI50: 5.43 µM
  TGI: > 100 µM
[16]
  GI50: > 100 µM
  TGI: > 100 µM
[17]
  GI50: 6.72 µM
  TGI: > 100 µM
[18]
  GI50: 5.31 µM
  TGI: > 100 µM
[19]
  GI50: 9.3 µM
  TGI: > 100 µM
[20]
  GI50: 9.26 µM
  TGI: > 100 µM
[21]
  GI50: > 100 µM
  TGI: > 100 µM
[22]
  GI50: 5.18 µM
  TGI: > 100 µM
[23]
  GI50: 6.98 µM
  TGI: > 100 µM
[24]
  GI50: > 100 µM
  TGI: > 100 µM
[25]
  GI50: > 100 µM
  TGI: > 100 µM
[26]
  GI50: > 100 µM
  TGI: > 100 µM
[27]
  GI50: > 100 µM
  TGI: > 100 µM
[28]
  GI50: 4.64 µM
  TGI: > 100 µM
[29]
  GI50: 7.71 µM
  TGI: > 100 µM
[30]
  GI50: 59 µM
  TGI: > 100 µM
[31]
  GI50: > 100 µM
  TGI: > 100 µM
[32]
  GI50: 29.2 µM
  TGI: > 100 µM
[33]
  GI50: 37.9 µM
  TGI: > 100 µM
[34]
  GI50: 14.3 µM
  TGI: > 100 µM
[35]
  GI50: > 100 µM
  TGI: > 100 µM
[36]
  GI50: > 100 µM
  TGI: > 100 µM
[37]
  GI50: 7.14 µM
  TGI: > 100 µM
[38]
  GI50: > 100 µM
  TGI: > 100 µM
[39]
  GI50: 9.82 µM
  TGI: > 100 µM
[40]
  GI50: 70.7 µM
  TGI: > 100 µM
[41]
  GI50: > 100 µM
  TGI: > 100 µM
[42]
  GI50: > 100 µM
  TGI: > 100 µM
[43]
  GI50: 64.4 µM
  TGI: > 100 µM
[44]
  GI50: > 100 µM
  TGI: > 100 µM
[45]
  GI50: > 100 µM
  TGI: > 100 µM
[46]
  GI50: > 100 µM
  TGI: > 100 µM
[47]
  GI50: 10.8 µM
  TGI: > 100 µM
[48]
  GI50: 48.3 µM
  TGI: > 100 µM
[49]
  GI50: > 100 µM
  TGI: > 100 µM
[50]
  GI50: 30.1 µM
  TGI: > 100 µM
[51]
  GI50: > 100 µM
  TGI: > 100 µM
[52]
  GI50: > 100 µM
  TGI: > 100 µM
[53]
  GI50: 41.9 µM
  TGI: > 100 µM
